Consider 15 molecules from patent US20240199676A1, “ANTIVIRAL COMPOUNDS AND METHODS OF MAKING AND USING THE SAME” (Gilead Sciences, Inc., priority 2022, published 2024).

Data set [1] can be described thus: GI S9 stability (Ex. Z), dog intestinal S9. It counts as in vitro ADME. As to conditions: pooled intestinal S9 fractions; dog intestinal S9, 1.0 mg/mL protein, 2 μM substrate, pH 7.4; read-out: GIS9 DOG T½ (per Ex. Z). As to the method: (§1) Example Z: GI S9 stability data:
(§2) Stock solutions of test compounds in dimethyl sulfoxide (DMSO) having a final concentration of 10 mM were prepared and used in all experiments. Sekisui XenoTech (Kansas City, KS) provided pooled intestinal S9 fractions. All other chemicals were purchased from Sigma-Aldrich (St. Louis, MO) or VWR (West Chester, PA). Internal Standard/Quench (IS/Q) used to stop reactions was 100 nM labetalol in (by volume) methanol (10%) and acetonitrile (90%).
(§3) Stability in Intestinal S9 Fractions: Duplicate aliquots of test compound or positive control substrate were added to S9 stock diluted with phosphate buffered saline (137 mM NaCl, 2.7 mM KCl, 10 mM phosphate buffer), pH 7.4, to obtain a protein concentration of 1.0 mg/mL. The metabolic reactions were initiated by the addition of the substrates to the S9 reaction mixture to a final concentration of 2 μM. At 0, 10, 20, 30, 60 and 120 min, 25 μL aliquots of the reaction mixture were transferred to plates containing 225 μl of IS/Q solution. After quenching, the plates were centrifuged at 3000×g for 30 minutes. 150 μL aliquots of each supernatant were dried down then reconstituted with 300 μL water. Aliquots (10 μL) of the prepared samples were analyzed on a Thermo Q-Exactive mass spectrometer as described below.
(§4) Liquid Chromatography—Mass Spectrometry: Quantification of test compounds and control substrate was performed by analyte/internal standard peak area ratio (PAR) values measured on a Thermo Q-Exactive mass spectrometer coupled to a Dionex UltiMate 3000 HPLC with a Leap Technologies HTC PAL autosampler. The column used for analysis was a Waters Acquity BEH C18 (1.7 μm particle size, 2.1×50 mm). Mobile phase A consisted of 0.1% (v/v) formic acid in water. Mobile phase B consisted of 0.1% (v/v) formic acid in acetonitrile. Elution of analytes was achieved by a series of linear gradients varying the proportions of A and B. The mass spectrometer was calibrated on a weekly basis and mass tolerance of 5 ppm was used.
(§5) Metabolic stabilities in S9 fractions were determined by measuring the rates of disappearance of test compound and positive control substrate.
(§6) Data (% of substrate remaining) were plotted on a semi-log scale and fitted using an exponential decline model:
(§7) Where Ct—% of substrate remaining at time=t; C0—% of substrate remaining at time=0; t—time; T½—half-life The Half-life (T½) is determined by the following equation: […]
(§8) Assuming a first-order reaction, the slope (k) is extrapolated from the aforementioned plotted data.

Data set [2] is described as follows: GI S9 stability (Ex. Z), cyno intestinal S9. It counts as in vitro ADME. To be noted: cynomolgus monkey, pooled intestinal S9 fractions; cyno intestinal S9, 1.0 mg/mL protein, 2 μM substrate, pH 7.4; read-out: GIS9 Cyno T½ (per Ex. Z). As to the method:
as §1, §2, §3, §4, §5, §6, §7, §8

For data set [3], the system named is Respiratory syncytial virus recombinant with luciferase (RSV-Luc5) in NHBE cells. In words: NHBE RSV-Luc5 384-well Assay (EC50 RSVFLUC NHBE-384, Ex. U). Type of data set: cell-based. To be noted: human respiratory syncytial virus, 72 h, read-out: EC50 RSV FLUC NHBE 384 (per Ex. U). The source says: Example U. NHBE RSV-Luc5 384-well Assay (EC50 RSVFLUC NHBE-384)
Normal Human Bronchial Epithelial (NHBE) cells were purchased from Lonza (Walkersville, MD Cat #CC2540) and maintained in BEGM Bronchial Epithelial Cell Growth Medium BulletKit (Lonza CC-3170).
Cells were thawed, expanded, and were used for experiments at passage 2. Respiratory syncytial virus recombinant with luciferase (RSV-Luc5) (≥1×10^7 Infectious Units/ml (IU/ml) determined by TCID50) was purchased from Microbiologics (Saint Cloud, MN). Viral replication was determined in NHBE cells in the following manner.
Compounds are prepared in 100% DMSO in 384-well polypropylene plates (Greiner, Monroe, NC, Cat #784201) with 8 compounds per plate in grouped replicates of 4 at 10 serially diluted concentrations (1:3). The serially diluted compounds were transferred to low dead volume Echo plates (Labcyte, Sunnyvale, CA, Cat #LP-0200).
The test compounds were spotted to 384-well assay plates (Greiner, Monroe, NC, Cat#781091) at 200 nL per well. NHBE cells were harvested and suspended in BEGM Bronchial Epithelial Cell Growth Medium BulletKit and seeded to the pre-spotted assay plates at 5,000 cells per well in 30 μL. RSV-Luc5 virus was diluted in BEGM Bronchial Epithelial Cell Growth Medium BulletKit at 500,000 Infectious Units (IU) per mL and 10 μL per well was added to the assay plates containing cells and compounds, for an MOI of 1. The assay plates were incubated for 3 days at 37° C. and 5% CO2. At the end of incubation, One-Glo reagent (Promega, Madison, WI, Cat #E6120) was prepared. The assay plates and One-Glo reagent were equilibrated to room temperature for at least 15 minutes. 40 μL per well of One-Glo reagent was added and the plates were incubated at room temperature for 15 minutes before reading the luminescence signal on an EnVision multimode plate reader (Perkin Elmer, Waltham, MA). Remdesivir was used as positive control and DMSO was used as negative control. Values were normalized to the positive and negative controls (as 0% and 100% replication, respectively) and data was fitted using non-linear regression analysis by Gilead's dose response tool. The EC50 value for each compound was defined as the concentration reducing the viral replication by 50%.

The structures appear in SMILES notation.

Usually EC50 stands for the concentration at which the effect is half-maximal. Turning to `CC(C)C(=O)OC[C@@]1(C#N)O[C@@H](c2ccc3c(N)ncnn23)[C@H](O)[C@@H]1O` [Compound 1, ((2R,3S,4R,5S)-5-(4-aminopyrrolo[2,1-f][1,2,4]triazin-7-yl)-2-cyano-3,4-dihydroxytetrahydrofuran-2-yl)methyl isobutyrate], the half-life at 2 μM in data set [1] was determined as 121 min; in data set [2], 25 min. Further, the concentration for a half-maximal effect (EC50) in data set [3] worked out at 22.1 µM.

As for `N#C[C@]1(COC(=O)c2ccccc2)O[C@@H](c2ccc3c(N)ncnn23)[C@H](O)[C@@H]1O` [Compound 2, ((2R,3S,4R,5S)-5-(4-aminopyrrolo[2,1-f][1,2,4]triazin-7-yl)-2-cyano-3,4-dihydroxytetrahydrofuran-2-yl)methyl benzoate], the half-life at 2 μM amounted to 789 min in data set [1] and 32 min in data set [2]. For the same molecule, the EC50 in data set [3] was 7.47 µM.

Turning to `CC(C)CC(=O)OC[C@@]1(C#N)O[C@@H](c2ccc3c(N)ncnn23)[C@H](O)[C@@H]1O` [Compound 3, ((2R,3S,4R,5S)-5-(4-aminopyrrolo[2,1-f][1,2,4]triazin-7-yl)-2-cyano-3,4-dihydroxytetrahydrofuran-2-yl)methyl 3-methylbutanoate], the figures for the half-life at 2 μM in data set [1] and in data set [2] were 497 min and 17 min, respectively. The EC50 in data set [3] came to 8.07 µM.

In the case of `CC(=O)OC[C@@]1(C#N)O[C@@H](c2ccc3c(N)ncnn23)[C@H](O)[C@@H]1O` [Compound 4, ((2R,3S,4R,5S)-5-(4-aminopyrrolo[2,1-f][1,2,4]triazin-7-yl)-2-cyano-3,4-dihydroxytetrahydrofuran-2-yl)methyl acetate], the half-life at 2 μM in data set [1] came to 41 min; in data set [2] it was 9 min. Further, in data set [3], the concentration giving a half-maximal response (EC50) stood at 11 µM.

As to `CCC(=O)OC[C@@]1(C#N)O[C@@H](c2ccc3c(N)ncnn23)[C@H](O)[C@@H]1O` [Compound 5, ((2R,3S,4R,5S)-5-(4-aminopyrrolo[2,1-f][1,2,4]triazin-7-yl)-2-cyano-3,4-dihydroxytetrahydrofuran-2-yl)methyl propionate], the values for the half-life at 2 μM in data set [1] and in data set [2] were 114 min and 6 min, respectively. In addition, the concentration giving a half-maximal response (EC50) in data set [3] was found to be 8.89 µM.

With `CCCC(=O)OC[C@@]1(C#N)O[C@@H](c2ccc3c(N)ncnn23)[C@H](O)[C@@H]1O` [Compound 6, ((2R,3S,4R,5S)-5-(4-aminopyrrolo[2,1-f][1,2,4]triazin-7-yl)-2-cyano-3,4-dihydroxytetrahydrofuran-2-yl)methyl butyrate], the half-life at 2 μM in data set [1] amounted to 38 min; in data set [2], 8 min. Also, in data set [3], the EC50 came out at 7.71 µM.

As for `N#C[C@]1(COC(=O)C2CC2)O[C@@H](c2ccc3c(N)ncnn23)[C@H](O)[C@@H]1O` [Compound 7, ((2R,3S,4R,5S)-5-(4-aminopyrrolo[2,1-f][1,2,4]triazin-7-yl)-2-cyano-3,4-dihydroxytetrahydrofuran-2-yl)methyl cyclopropanecarboxylate], the figures for the half-life at 2 μM in data set [1] and in data set [2] were 633 min and 100 min, respectively. The EC50 in data set [3] was 9.65 µM.

For the molecule `N#C[C@]1(COC(=O)C2CCC2)O[C@@H](c2ccc3c(N)ncnn23)[C@H](O)[C@@H]1O` [Compound 8, ((2R,3S,4R,5S)-5-(4-aminopyrrolo[2,1-f][1,2,4]triazin-7-yl)-2-cyano-3,4-dihydroxytetrahydrofuran-2-yl)methyl cyclobutanecarboxylate], the half-life at 2 μM in data set [1] was determined as 10 min; in data set [2], 4 min. For the same molecule, the concentration giving a half-maximal response (EC50) in data set [3] was found to be 8.79 µM.

As for `CCC(CC)C(=O)OC[C@@]1(C#N)O[C@@H](c2ccc3c(N)ncnn23)[C@H](O)[C@@H]1O` [Compound 9, ((2R,3S,4R,5S)-5-(4-aminopyrrolo[2,1-f][1,2,4]triazin-7-yl)-2-cyano-3,4-dihydroxytetrahydrofuran-2-yl)methyl 2-ethylbutanoate], the half-life at 2 μM in data set [1] stood at 510 min; in data set [2] it was 57 min. Also, in data set [3], the EC50 stood at 8.69 µM.

Turning to `CC(C)(C)C(=O)OC[C@@]1(C#N)O[C@@H](c2ccc3c(N)ncnn23)[C@H](O)[C@@H]1O` [Compound 10, ((2R,3S,4R,5S)-5-(4-aminopyrrolo[2,1-f][1,2,4]triazin-7-yl)-2-cyano-3,4-dihydroxytetrahydrofuran-2-yl)methyl pivalate], the half-life at 2 μM was 269 min in data set [1] and 123 min in data set [2]. Further, the EC50 in data set [3] was found to be 8.08 µM.

Regarding `CCC(CC)C(=O)Nc1ncnn2c([C@@H]3O[C@](C#N)(COC(=O)C(CC)CC)[C@@H](O)[C@H]3O)ccc12` [Compound 11, ((2R,3S,4R,5S)-2-cyano-5-(4-(2-ethylbutanamido)pyrrolo[2,1-f][1,2,4]triazin-7-yl)-3,4-dihydroxytetrahydrofuran-2-yl)methyl 2-ethylbutanoate], the half-life at 2 μM was determined as 95 min in data set [1] and 19 min in data set [2]. Besides, in data set [3], the EC50 is 25.2 µM.

Turning to `CC(C)[C@H](N)C(=O)OC[C@@]1(C#N)O[C@@H](c2ccc3c(N)ncnn23)[C@H](O)[C@@H]1O` [Compound 12, ((2R,3S,4R,5S)-5-(4-aminopyrrolo[2,1-f][1,2,4]triazin-7-yl)-2-cyano-3,4-dihydroxytetrahydrofuran-2-yl)methyl L-valinate], the figures for the half-life at 2 μM in data set [1] and in data set [2] were 5 min and 2 min, respectively. Moreover, the 50% effective concentration (EC50) in data set [3] came to 11.5 µM.

With `CC1(C)CC(C(=O)OC[C@@]2(C#N)O[C@@H](c3ccc4c(N)ncnn34)[C@H](O)[C@@H]2O)C1` [Compound 17, ((2R,3S,4R,5S)-5-(4-aminopyrrolo[2,1-f][1,2,4]triazin-7-yl)-2-cyano-3,4-dihydroxytetrahydrofuran-2-yl)methyl 3,3-dimethylcyclobutane-1-carboxylate], the half-life at 2 μM in data set [1] was 48 min. Further, the EC50 in data set [3] amounted to 8.09 µM.

`N#C[C@]1(COC(=O)C2CCCCC2)O[C@@H](c2ccc3c(N)ncnn23)[C@H](O)[C@@H]1O` [Compound 19, ((2R,3S,4R,5S)-5-(4-aminopyrrolo[2,1-f][1,2,4]triazin-7-yl)-2-cyano-3,4-dihydroxytetrahydrofuran-2-yl)methyl cyclohexanecarboxylate]: the half-life at 2 μM in data set [1] amounted to 48 min; in data set [2], 2 min.

For `CC(C)C(=O)OC[C@@]1(C#N)O[C@@H](c2ccc3c(N)ncnn23)[C@H](OC(=O)C(C)C)[C@@H]1OC(=O)C(C)C` [Compound 20, (2R,3S,4S,5S)-5-(4-aminopyrrolo[2,1-f][1,2,4]triazin-7-yl)-2-cyano-2-((isobutyryloxy)methyl)tetrahydrofuran-3,4-diyl bis(2-methylpropanoate)], the half-life at 2 μM in data set [1] stood at 3 min. Besides, the EC50 in data set [3] is 31.7 µM.
